# How the values were obtained:
# [1] = Inhibition of EZH2 in human EPN8 cells assessed as reduction in cell viability incubated for 120 hrs by MTT assay
# [2] = Inhibition of EZH2 in human DKFZ-EP1 cells assessed as reduction in cell viability incubated for 120 hrs by MTT assay
# [3] = Inhibition of EZH2 in human BXD-1425EPN cells assessed as reduction in cell viability incubated for 120 hrs by MTT assay
smiles,measurement,setting,value
CCCc1cc(C)[nH]c(=O)c1CNC(=O)c1cc(-c2ccnc(N3CCN(C)CC3)c2)cc2c1cnn2C(C)C,IC50,[1],20 µM
same,IC50,[2],20 µM
same,IC50,[3],16 µM
